Experimental data reported in US11317626B2, “Forchlorfenuron mixtures and uses thereof” (Valent BioSciences LLC, priority 2018, dated 2022).

Tests used:
Type in all cases: in vivo
Concord grape vines = assay: Example 1: bud break and shoot growth of potted Concord grape vines in greenhouse; conditions: for Broken Buds/Plant / FW/Broken Bud: 51 days post-treatment; for FW/Plant: combined shoot fresh weight at 51 DAT; for 50% BB: days from application to 50% of the plants showing at least one bud broken; for 0-50% BB: days from bud break on the first plant to 50% of the plants with bud break, synchrony
Source text: An aqueous 50% hydrogen cyanamide solution (Sigma-Aldrich, St. Louis, Mo. USA) was used as the source of hydrogen cyanamide (“HC”). The commercial product, Dormex® contains 50% hydrogen cyanamide (w/v) in an aqueous base.
Erger® was used as the source of 15-0-0 fertilizer. Erger® contains 15% total nitrogen as 3.1% ammoniacal nitrogen, 5.8% nitrate nitrogen, 6.1% urea nitrogen and 3.3% calcium derived from a mixture of ammonium nitrate, calcium nitrate and urea. Erger® is always used in combination with either 20% (w/v) Ca(NO3)2 or Activ Erger®. In the following examples, 15-0-0 fertilizer was applied at a rate of 208,340 ppm calcium nitrate, 15,060 ppm nitrogen nitrate and 15,660 ppm urea or 239,060 ppm total.
CAN-17 was used as the 17-0-0 fertilizer. CAN-17 contains 17% total nitrogen as 4.6% ammonium nitrogen and 11.6% nitrate nitrogen and 1.3% urea nitrogen and 8.8% calcium derived from ammonium nitrate and calcium nitrate. CAN-17 is available from J. R. Simplot Company (Boise, Id., USA). In the following examples, 17-0-0 fertilizer was applied at a rate of 118,200 ppm calcium nitrate and 78,900 ppm nitrogen nitrate or 197,100 ppm total. See, Table 1 below, for ratios of forchlorfenuron (“CPPU”) to fertilizer that were used in the following examples.
To assess the ability of mixtures of the invention to promote and synchronize bud break these mixtures were applied to Concord grape vines and examined for bud break (initiation of growth) and subsequent shoot development. Specifically, dormant bare-rooted Concord grape vines were planted in pots containing Pro-Mix® BX potting soil (Pro-Mix is a registered trademark of and available from Premier Horticulture Ltd.) and pruned to five nodes on a single shoot of one-year-old wood. Nodes are regions on the shoot where leaves arise from the shoot and buds are present at the axis of the shoot:leaf interface. The bud found at the shoot:leaf interface develops into the vines new shoot growth. Aqueous solutions of forchlorfenuron, HC, 15-0-0 fertilizer, 17-0-0 fertilizer, and mixtures thereof were each applied individually or sequentially or co-applied to the first-year wood of separate Concord grape vines. Plants were grown in a heated greenhouse for 49 days and evaluated for percent of vines showing bud break, periodically between seven days after application and the conclusion of the experiment. Percent bud break is determined by the number of plants that have at least one bud broken divided by the total number of plants per treatment times 100. At 51 days after treatment (“DAT”), the plants were sacrificed and measured for total number of flower clusters, total new shoot length, longest new shoot, combined new shoot fresh weight. New shoot growth is the growth arising from the dormant buds not including the woody growth that was planted and gave rise to the new growth.
(§1) To determine if the mixtures provided unexpected results, the observed combined efficacy (“OCE”) was divided by the expected combined efficacy (“ECE”) wherein the expected ECE is calculated by the Abbott method: ECE=A+B−(AB/100), • wherein ECE is the expected combined efficacy and in which A and B are the speed of bud break relative to control, the number of buds broken per plant relative to control, shoot length relative to control or shoot weight relative to control given by the single active ingredients. If the ratio between the OCE of the mixture and the ECE of the mixture is greater than 1, then greater than expected interactions are present in the mixture. (Gisi, Synergistic Interaction of Fungicides in Mixtures, The American Phytopathological Society, 86:11, 1273-1279,1996). Results

[1] = tested on: Flame seedless grape vines; assay: Example 3: bud break on spurs of field-grown Flame seedless grape vines; conditions: 41 days post application
Procedure: as §1
To assess the ability of mixtures of the invention to promote and synchronize bud break, these mixtures were applied to field-grown Flame seedless grape vines in Thermal, Calif., and examined for bud break (initiation of growth) and subsequent shoot development. Forchlorfenuron, Dormex (50% HC), 15-0-0 (Erger®) and 17-0-0 fertilizers (CAN17), and mixtures thereof were each applied individually or sequentially (co-applied) to the separate spurs of Flame seedless grape vines. Plants were evaluated for bud break at 41 days after treatment. Results of these evaluations can be seen below in Tables 11 and 12.

[2] = tested on: Prunus (stone fruit) plants; assay: Example 5: bud break and shoot growth of Prunus (stone fruit) plants in greenhouse; conditions: for Fresh Weight at Harvest, FW: combined new shoot fresh weight, harvest at 28 days; for 50% BB: days after treatment to 50% bud break
Procedure: as §1
To assess the ability of mixtures of the invention to promote and synchronize bud break, these mixtures were applied to Prunus (stone fruit) plants in the greenhouse and examined for bud break (initiation of growth) and subsequent shoot development. Forchlorfenuron, Dormex (50% HC), 15-0-0 (Erger®) and 17-0-0 fertilizers (CAN17), and mixtures thereof were each applied individually or sequentially (co-applied) to the shoots of Prunus plants. Plants were evaluated for bud break at 28 days after treatment.

For `O=C(Nc1ccccc1)Nc1ccnc(Cl)c1` [CPPU, N-(2-Chloro-4-pyridyl)-N′-phenylurea], the “Percentage of Concord Grape Vines with Dormancy Relieved” value (“Percentage of Concord Grape Vines” for short) (Concord grape vines; 31 days after treatment, plants with at least one bud showing a green shoot emerging, listed as CPPU 100 ppm) was 25%, the “Percentage of Concord Grape Vines” value (Concord grape vines; 31 days after treatment, plants with at least one bud showing a green shoot emerging, listed as CPPU 300 ppm) was 12.5% and the “Percentage of Concord Grape Vines” value (Concord grape vines; 31 days after treatment, plants with at least one bud showing a green shoot emerging, listed as CPPU 1000 ppm) was 37.5%. For the same compound, the “Percentage of Concord Grape Vines” value (Concord grape vines; 34 days after treatment, listed as CPPU 100 ppm) was 50%, the “Percentage of Concord Grape Vines” value (Concord grape vines; 34 days after treatment, listed as CPPU 300 ppm) was 37.5% and the “Percentage of Concord Grape Vines” value (Concord grape vines; 34 days after treatment, listed as CPPU 1000 ppm) was 62.5%. The “Percentage of Concord Grape Vines” value (Concord grape vines; 36 days after treatment, listed as CPPU 100 ppm) was 50%, the “Percentage of Concord Grape Vines” value (Concord grape vines; 36 days after treatment, listed as CPPU 300 ppm) was 50% and the “Percentage of Concord Grape Vines” value (Concord grape vines; 36 days after treatment, listed as CPPU 1000 ppm) was 62.5%. For the same compound, the “Percentage of Concord Grape Vines” value (Concord grape vines; 38 days after treatment, listed as CPPU 100 ppm) was 50%, the “Percentage of Concord Grape Vines” value (Concord grape vines; 38 days after treatment, listed as CPPU 300 ppm) was 50% and the “Percentage of Concord Grape Vines” value (Concord grape vines; 38 days after treatment, listed as CPPU 1000 ppm) was 75%. For the same compound, the “Percentage of Concord Grape Vines” value (Concord grape vines; 43 days after treatment, listed as CPPU 100 ppm) was 75%, the “Percentage of Concord Grape Vines” value (Concord grape vines; 43 days after treatment, listed as CPPU 300 ppm) was 62.5% and the “Percentage of Concord Grape Vines” value (Concord grape vines; 43 days after treatment, listed as CPPU 1000 ppm) was 87.5%. For the same compound, the “Percentage of Concord Grape Vines” value (Concord grape vines; 45 days after treatment, listed as CPPU 100 ppm) was 75%, the “Percentage of Concord Grape Vines” value (Concord grape vines; 45 days after treatment, listed as CPPU 300 ppm) was 62.5% and the “Percentage of Concord Grape Vines” value (Concord grape vines; 45 days after treatment, listed as CPPU 1000 ppm) was 87.5%. For the same compound, the “Percentage of Concord Grape Vines” value (Concord grape vines; 51 days after treatment, listed as CPPU 100 ppm) was 87.5%, the “Percentage of Concord Grape Vines” value (Concord grape vines; 51 days after treatment, listed as CPPU 300 ppm) was 62.5% and the “Percentage of Concord Grape Vines” value (Concord grape vines; 51 days after treatment, listed as CPPU 1000 ppm) was 87.5%. The “Broken Buds/Plant” value (Concord grape vines; listed as CPPU 100 ppm) was 1.71, the “FW/Broken Bud” value (Concord grape vines; listed as CPPU 100 ppm) was 4.73 grams and the “Broken Buds/Plant” value (Concord grape vines; listed as CPPU 300 ppm) was 2.00. The “FW/Broken Bud” value (Concord grape vines; listed as CPPU 300 ppm) was 4.69 grams, the “Broken Buds/Plant” value (Concord grape vines; listed as CPPU 1000 ppm) was 1.29 and the “FW/Broken Bud” value (Concord grape vines; listed as CPPU 1000 ppm) was 9.51 grams. It also gave an FW/Plant (Concord grape vines; listed as CPPU 100 ppm) of 8.11 grams, an FW/Plant (Concord grape vines; listed as CPPU 300 ppm) of 9.39 grams and an FW/Plant (Concord grape vines; listed as CPPU 1000 ppm) of 12.22 grams. For the same compound, the “50% BB” value (Concord grape vines; listed as CPPU 100 ppm) was 34 days, the “50% BB” value (Concord grape vines; listed as CPPU 300 ppm) was 36 days and the “50% BB” value (Concord grape vines; listed as CPPU 1000 ppm) was 34 days. The “0-50% BB” value (Concord grape vines; listed as CPPU 100 ppm) was 10 days, the “0-50% BB” value (Concord grape vines; listed as CPPU 300 ppm) was 7 days and the “0-50% BB” value (Concord grape vines; listed as CPPU 1000 ppm) was 14 days. For the same compound, the “Broken Buds per Spur (OCE)” value ([1]; listed as CPPU 300 ppm) was 0.00, the “Percentage of Spurs With At Least One Bud Broken (OCE)” value (“Percentage … (OCE)” below) ([1]; listed as CPPU 300 ppm) was 0% and the “Broken Buds per Spur (OCE)” value ([1]; listed as CPPU 600 ppm) was 0.03. The “Percentage … (OCE)” value ([1]; listed as CPPU 600 ppm) was 3%, the “Broken Buds per Spur (OCE)” value ([1]; listed as CPPU 1000 ppm) was 0.00 and the “Percentage … (OCE)” value ([1]; listed as CPPU 1000 ppm) was 0%. For the same compound, the “Fresh Weight at Harvest, FW” value ([2]; listed as CPPU 300 ppm) was 1.34 grams, the “Fresh Weight at Harvest, FW” value ([2]; listed as CPPU 600 ppm) was 4.91 grams and the “50% BB” value ([2]; listed as CPPU 300 ppm) was 14 days. The “50% BB” value ([2]; listed as CPPU 600 ppm) was 10 days.
